Results reported in patent US20230148599A1, “FUNGICIDAL MIXTURES CONTAINING PYRAZOLE DERIVATIVES” (FMC Corporation, priority 2020, published 2023).

Columns and labels:
Format in all cases: in vivo
Details in all cases: 50 ppm, 100 = 100% disease control, 0 = no control
[1] = test system: Blumeria graminis f. sp. tritici; assay: Test C: wheat powdery mildew, preventive spray on wheat seedlings
Outline: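 Preventive test: inoculation with spore dust came one day after spraying seedlings to run-off with ppm suspensions in acetone/water (50/50) plus 250 ppm PEG400 surfactant. Visual ratings after 8 days' incubation at 20° C give percent disease control relative to controls.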

Botrytis cinerea = assay: Test E: tomato Botrytis, preventive spray on tomato seedlings
Outline: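 Preventive test: seedlings sprayed to run-off with compound in acetone/water (50/50) plus 250 ppm PEG400, inoculated one day later with B. cinerea spores. Held 48 h saturated at 20° C, then 3 days at 24° C; disease control scored visually from 0 to 100 versus controls.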

[2] = test system: Puccinia recondita f. sp. tritici; assay: Test B: wheat leaf rust, preventive spray on wheat seedlings
Outline: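 Preventive test: compound in acetone/water 50/50 with 250 ppm PEG400 was sprayed onto wheat seedlings one day before inoculation with leaf rust spores. After 24 h in saturated air and 7 days in a growth chamber, both at 20 °C, disease control was scored from 0 to 100 against controls.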

Septoria tritici = assay: Test A: wheat leaf blotch, preventive spray on wheat seedlings
Outline: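 Preventive test: one day after spraying seedlings to run-off (concentrations in ppm; acetone/water, 250 ppm PEG400), Septoria tritici spores applied. Scored after 48 h humid incubation at 24 °C plus 17 days at 20 °C, as percent disease control versus untreated controls (100 = full control).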

Alternaria solani = assay: Test F: tomato early blight, preventive spray on tomato seedlings
Outline: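 Preventive test: one day after the compound spray, seedlings were inoculated with A. solani, incubated saturated at 27 °C for 48 h, then kept at 20 °C for 3 days. Test suspensions contained acetone/water 50/50 with 250 ppm PEG400 surfactant. Visual ratings run from 0 (no control) to 100 (full control).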

Phakopsora pachyrhizi = assay: Test D: Asian soybean rust, preventive spray on soybean seedlings
Outline: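 Compounds in acetone/water (50/50) with 250 ppm PEG400, dosed in ppm, sprayed to run-off on soybean seedlings; inoculated with P. pachyrhizi spores next day. Held 24 h at 22 °C in saturated air, then 8 days at 22 °C; visual rating of disease control, 0–100, relative to untreated controls.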

| Compound | Test C disease control rating [1] [%] | Test E disease control rating (Botrytis cinerea) [%] | Test B disease control rating [2] [%] | Test A disease control rating (Septoria tritici) [%] | Test F disease control rating (Alternaria solani) [%] | Test D disease control rating (Phakopsora pachyrhizi) [%] |
| --- | --- | --- | --- | --- | --- | --- |
| COc1ccc(Nc2c(-c3ccc(C#N)cc3Br)c(C)nn2C)c([N+](=O)[O-])c1 [compound 180] | 79 | 99 | 98 | 100 | 98 | 0 |
| CCc1nn(C)c(Nc2c(F)cc(C)cc2[N+](=O)[O-])c1-c1ccc(F)cc1Cl [compound 137] | 100 | 99 | 100 | 100 | 99 | 91 |
| COc1ccc(Nc2c(-c3c(F)cc(F)cc3Br)c(C)nn2C)c([N+](=O)[O-])c1 [compound 164] | 98 | 100 | 100 | 100 | 99 | 0 |
| Cc1nn(C)c(Nc2ccc(OCC(F)F)cc2[N+](=O)[O-])c1-c1ccc(F)cc1Cl [compound 36] | 56 | 100 | 89 | 100 | 0 | 25 |
| Cc1cc(Cl)c(Nc2c(-c3ccc(F)cc3F)c(C)nn2C)c([N+](=O)[O-])c1 [compound 15] | 98 | 99 | 100 | 100 | 53 | 61 |
| Cc1nn(C)c(Nc2c(F)cc(F)cc2[N+](=O)[O-])c1-c1ccc(Cl)cc1F [compound 13] | 97 | 68 | 99 | 100 | 89 | 19 |
| Cc1nn(C)c(Nc2c(F)cccc2[N+](=O)[O-])c1-c1c(F)cccc1Cl [compound 25] | 99 | 100 | 100 | 100 | 98 | 98 |
| COc1cc(F)c(-c2c(C)nn(C)c2Nc2c(F)cc(F)cc2[N+](=O)[O-])c(F)c1 [compound 84] | 99 | 90 | 100 | 100 | 99 | 48 |
| COc1ccc(Nc2c(-c3ccc(C#N)cc3Cl)c(C)nn2C)c([N+](=O)[O-])c1 [compound 124] | 99 | 100 | 100 | 100 | 99 | 25 |
| Cc1cc(Cl)c(Nc2c(-c3c(F)cccc3Cl)c(C)nn2C)c([N+](=O)[O-])c1 [compound 24] | 0 | 97 | 89 | 100 | 0 | 0 |
| Cc1nn(C)c(Nc2c(Br)cccc2[N+](=O)[O-])c1-c1ccc(C#N)cc1Cl [compound 125] | 0 | 99 | 96 | 100 | 9 | 0 |
| COc1cc(F)c(Nc2c(-c3c(F)cccc3F)c(C)nn2C)c([N+](=O)[O-])c1 [compound 97] | 100 | 100 | 100 | 100 | 99 | 96 |
| Cc1ccc(Nc2c(-c3c(F)cccc3F)c(C)nn2C)c([N+](=O)[O-])c1 [compound 105] | 86 | 73 | 74 | 99 | 0 | 0 |
| Cc1cc(F)c(Nc2c(-c3ccc(F)cc3F)c(C)nn2C)c([N+](=O)[O-])c1 [compound 178] | 99 | 100 | 100 | 100 | 100 | 97 |
| Cc1cc(F)c(Nc2c(-c3ccc(F)cc3Br)c(C)nn2C)c([N+](=O)[O-])c1 [compound 40] | 100 | 98 | 100 | 100 | 100 | 82 |
| Cc1nn(C)c(Nc2c(Cl)cc(Cl)cc2[N+](=O)[O-])c1-c1ccc(F)cc1F [compound 101] | 89 | 99 | 99 | 100 | 0 | 44 |
| Cc1nn(C)c(Nc2c(Cl)cc(F)cc2[N+](=O)[O-])c1-c1ccc(F)cc1F [compound 67] | 89 | 98 | 100 | 100 | 33 | 69 |
| CCc1nn(C)c(Nc2c(Cl)cccc2[N+](=O)[O-])c1-c1ccc(F)cc1F [compound 17] | 94 | 99 | 92 | 100 | 9 | 0 |
| COc1ccc(-c2c(C)nn(C)c2Nc2c(F)cc(Br)cc2[N+](=O)[O-])c(Cl)c1 [compound 182] | 76 | 100 | 99 | 100 | 99 | 0 |
| COc1ccc(-c2c(C)nn(C)c2Nc2c(Cl)cc(Cl)cc2[N+](=O)[O-])c(Cl)c1 [compound 65] | 56 | 16 | 89 | 94 | 46 | 66 |
| Cc1cccc([N+](=O)[O-])c1Nc1c(-c2c(F)cc(F)cc2Br)c(C)nn1C [compound 169] | 100 | 98 | 100 | 100 | 0 | 0 |
| Cc1cc(F)c(Nc2c(-c3c(F)cccc3Cl)c(C)nn2C)c([N+](=O)[O-])c1 [compound 201] | 99 | 99 | 100 | 100 | 99 | 98 |
| COc1ccc(-c2c(C)nn(C)c2Nc2c(F)cc(OC)cc2[N+](=O)[O-])c(Cl)c1 [compound 186] | 99 | 100 | 100 | 100 | 100 | 94 |
| Cc1nn(C)c(Nc2c(Cl)cccc2[N+](=O)[O-])c1-c1c(F)cc(F)cc1F [compound 158] | 99 | 99 | 100 | 99 | 83 | 87 |
| COc1ccc(-c2c(C)nn(C)c2Nc2c(C)cccc2[N+](=O)[O-])c(Cl)c1 [compound 183] | 78 | 100 | 99 | 100 | 58 | 0 |
| Cc1nn(C)c(Nc2c(Cl)cc(F)cc2[N+](=O)[O-])c1-c1ccc(Cl)cc1Cl [compound 10] | 48 | 68 | 99 | 100 | 9 | 0 |
